# What was measured:
# Assay in all cases: radiometric filter-binding kinase assay
# AURKA (human) = AURKA (human) (UniProt O14965)
# BRSK2 (human) = BRSK2 (human) (UniProt Q8IWQ3)
# CDK2 CCNA2 (human) = CDK2 CCNA2 (human) (UniProt P20248+P24941)
# CHEK1 (human) = CHEK1 (human) (UniProt O14757)
# CHEK2 (human) = CHEK2 (human) (UniProt O96017)
# CLK2 (human) = CLK2 (human) (UniProt P49760)
# DAPK1 (human) = DAPK1 (human) (UniProt P53355)
# EEF2K (human) = EEF2K (human) (UniProt O00418)
# EPHB4 (human) = EPHB4 (human) (UniProt P54760)
# ERBB4 (human) = ERBB4 (human) (UniProt Q15303)
# FLT1 (human) = FLT1 (human) (UniProt P17948)
# GCK (human) = GCK (human) (UniProt Q12851)
# GCK (human), sequence (Q12851 whole entry, looked up): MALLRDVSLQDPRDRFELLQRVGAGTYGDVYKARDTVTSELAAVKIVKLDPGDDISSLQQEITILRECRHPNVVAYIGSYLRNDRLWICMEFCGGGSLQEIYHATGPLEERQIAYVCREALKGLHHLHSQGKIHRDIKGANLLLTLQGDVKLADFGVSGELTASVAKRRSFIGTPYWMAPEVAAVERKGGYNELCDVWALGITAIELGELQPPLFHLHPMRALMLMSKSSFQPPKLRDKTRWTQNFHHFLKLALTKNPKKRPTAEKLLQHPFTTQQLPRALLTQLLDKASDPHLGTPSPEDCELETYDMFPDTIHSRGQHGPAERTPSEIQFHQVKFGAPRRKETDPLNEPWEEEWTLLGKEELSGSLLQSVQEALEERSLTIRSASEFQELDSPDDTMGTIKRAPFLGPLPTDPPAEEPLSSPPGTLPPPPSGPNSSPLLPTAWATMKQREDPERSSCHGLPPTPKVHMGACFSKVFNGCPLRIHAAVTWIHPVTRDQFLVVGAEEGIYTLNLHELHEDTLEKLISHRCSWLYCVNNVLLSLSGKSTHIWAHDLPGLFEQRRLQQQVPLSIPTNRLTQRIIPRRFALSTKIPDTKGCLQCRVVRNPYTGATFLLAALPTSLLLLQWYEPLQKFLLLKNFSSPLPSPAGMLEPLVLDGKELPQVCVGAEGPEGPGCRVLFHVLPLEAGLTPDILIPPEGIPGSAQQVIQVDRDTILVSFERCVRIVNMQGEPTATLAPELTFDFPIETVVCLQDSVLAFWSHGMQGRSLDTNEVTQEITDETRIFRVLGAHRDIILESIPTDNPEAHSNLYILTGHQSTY
# HIPK1 (human) = HIPK1 (human) (UniProt Q86Z02)
# HIPK3 (human) = HIPK3 (human) (UniProt Q9H422); settings: compound 1.0 µM
# JAK2 JH1 JH2 (human) = JAK2 JH1 JH2 (human) (UniProt O60674)
# JAK2 JH1 JH2 (human), sequence (O60674 whole entry, looked up): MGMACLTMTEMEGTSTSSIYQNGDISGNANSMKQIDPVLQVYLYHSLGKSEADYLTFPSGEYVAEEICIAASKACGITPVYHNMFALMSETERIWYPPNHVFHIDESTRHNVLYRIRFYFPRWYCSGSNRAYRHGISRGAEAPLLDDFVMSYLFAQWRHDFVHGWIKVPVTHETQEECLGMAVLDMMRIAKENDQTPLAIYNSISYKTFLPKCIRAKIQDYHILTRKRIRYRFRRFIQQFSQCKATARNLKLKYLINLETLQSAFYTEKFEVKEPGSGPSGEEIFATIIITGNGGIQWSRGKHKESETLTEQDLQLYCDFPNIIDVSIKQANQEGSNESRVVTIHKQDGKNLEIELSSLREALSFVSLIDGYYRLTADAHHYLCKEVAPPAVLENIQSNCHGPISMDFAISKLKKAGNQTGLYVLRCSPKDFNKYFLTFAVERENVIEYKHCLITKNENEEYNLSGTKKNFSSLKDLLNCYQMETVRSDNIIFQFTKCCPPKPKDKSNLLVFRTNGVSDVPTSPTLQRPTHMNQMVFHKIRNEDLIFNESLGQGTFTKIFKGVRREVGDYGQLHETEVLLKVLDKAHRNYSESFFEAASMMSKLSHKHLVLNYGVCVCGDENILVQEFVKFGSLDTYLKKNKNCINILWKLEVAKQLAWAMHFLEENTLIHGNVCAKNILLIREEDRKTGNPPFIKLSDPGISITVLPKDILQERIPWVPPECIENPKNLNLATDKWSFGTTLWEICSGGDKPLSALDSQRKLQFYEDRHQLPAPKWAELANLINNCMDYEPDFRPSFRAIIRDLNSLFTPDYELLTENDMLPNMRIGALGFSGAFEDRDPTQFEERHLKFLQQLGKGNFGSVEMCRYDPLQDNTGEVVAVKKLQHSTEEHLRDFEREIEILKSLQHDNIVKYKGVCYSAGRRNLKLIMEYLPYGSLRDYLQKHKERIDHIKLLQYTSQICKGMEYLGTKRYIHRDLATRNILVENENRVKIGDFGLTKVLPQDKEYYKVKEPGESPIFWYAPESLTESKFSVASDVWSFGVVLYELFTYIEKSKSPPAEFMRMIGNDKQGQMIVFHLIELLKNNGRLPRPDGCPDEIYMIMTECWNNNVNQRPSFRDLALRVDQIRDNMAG
# MAP3K1 (human) = MAP3K1 (human) (UniProt Q13233)
# MAP3K5 (human) = MAP3K5 (human) (UniProt Q99683)
# MAPK1 (human) = MAPK1 (human) (UniProt P28482)
# MAPK1 (human), sequence (P28482 whole entry, looked up): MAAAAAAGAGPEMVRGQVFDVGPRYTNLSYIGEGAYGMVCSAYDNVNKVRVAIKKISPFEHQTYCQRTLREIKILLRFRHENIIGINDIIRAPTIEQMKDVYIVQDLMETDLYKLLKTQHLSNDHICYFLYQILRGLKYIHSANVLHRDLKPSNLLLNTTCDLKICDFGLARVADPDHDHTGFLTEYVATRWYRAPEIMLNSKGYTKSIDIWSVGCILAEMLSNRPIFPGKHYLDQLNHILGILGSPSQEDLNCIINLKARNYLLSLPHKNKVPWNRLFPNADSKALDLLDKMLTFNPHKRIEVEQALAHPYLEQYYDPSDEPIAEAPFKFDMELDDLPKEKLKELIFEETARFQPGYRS
# MAPK3 (human) = MAPK3 (human) (UniProt P27361)
# MARK3 (human) = MARK3 (human) (UniProt P27448)
# MARK4 (human) = MARK4 (human) (UniProt Q96L34)
# MST4 (human) = MST4 (human) (UniProt Q9P289)
# NTRK1 (human) = NTRK1 (human) (UniProt P04629)
# NUAK1 (human) = NUAK1 (human) (UniProt O60285)
# PAK6 (human) = PAK6 (human) (UniProt Q9NQU5)
# PLK1 (human) = PLK1 (human) (UniProt P53350)
# PRKCA (human) = PRKCA (human) (UniProt P17252)
# PRKCZ (human) = PRKCZ (human) (UniProt Q05513)
# RPS6KA1 KD1 KD2 (human) = RPS6KA1 KD1 KD2 (human) (UniProt Q15418)
# RPS6KA3 KD1 KD2 (human) = RPS6KA3 KD1 KD2 (human) (UniProt P51812)
# RPS6KA5 KD1 KD2 (human) = RPS6KA5 KD1 KD2 (human) (UniProt O75582)
# RPS6KA5 KD1 KD2 (human), sequence (O75582 whole entry, looked up): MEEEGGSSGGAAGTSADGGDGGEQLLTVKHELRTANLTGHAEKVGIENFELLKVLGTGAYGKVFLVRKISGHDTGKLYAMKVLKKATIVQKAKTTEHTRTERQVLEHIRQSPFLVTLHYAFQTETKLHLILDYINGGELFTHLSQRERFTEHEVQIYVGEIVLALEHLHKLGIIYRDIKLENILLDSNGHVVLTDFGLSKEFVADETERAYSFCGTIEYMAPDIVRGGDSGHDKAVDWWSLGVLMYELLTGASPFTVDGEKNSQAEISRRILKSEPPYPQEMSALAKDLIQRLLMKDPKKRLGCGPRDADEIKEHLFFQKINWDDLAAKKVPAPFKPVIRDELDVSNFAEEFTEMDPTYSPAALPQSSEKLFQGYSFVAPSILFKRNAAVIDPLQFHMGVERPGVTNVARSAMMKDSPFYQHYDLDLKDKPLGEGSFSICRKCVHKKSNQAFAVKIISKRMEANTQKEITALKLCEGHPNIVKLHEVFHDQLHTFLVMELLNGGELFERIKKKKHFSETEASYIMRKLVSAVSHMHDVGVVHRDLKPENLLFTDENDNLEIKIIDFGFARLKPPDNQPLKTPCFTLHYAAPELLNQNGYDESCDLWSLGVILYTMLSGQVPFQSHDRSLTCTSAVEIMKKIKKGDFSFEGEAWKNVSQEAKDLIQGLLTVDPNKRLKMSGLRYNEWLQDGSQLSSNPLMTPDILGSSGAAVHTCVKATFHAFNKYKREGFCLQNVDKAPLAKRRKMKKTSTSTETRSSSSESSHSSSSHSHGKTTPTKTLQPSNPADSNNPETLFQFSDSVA
# [1] = system: SGK1 (human), O00141 [S422D]
# SGK1 (human), O00141 [S422D], sequence (O00141 whole entry S422D, looked up): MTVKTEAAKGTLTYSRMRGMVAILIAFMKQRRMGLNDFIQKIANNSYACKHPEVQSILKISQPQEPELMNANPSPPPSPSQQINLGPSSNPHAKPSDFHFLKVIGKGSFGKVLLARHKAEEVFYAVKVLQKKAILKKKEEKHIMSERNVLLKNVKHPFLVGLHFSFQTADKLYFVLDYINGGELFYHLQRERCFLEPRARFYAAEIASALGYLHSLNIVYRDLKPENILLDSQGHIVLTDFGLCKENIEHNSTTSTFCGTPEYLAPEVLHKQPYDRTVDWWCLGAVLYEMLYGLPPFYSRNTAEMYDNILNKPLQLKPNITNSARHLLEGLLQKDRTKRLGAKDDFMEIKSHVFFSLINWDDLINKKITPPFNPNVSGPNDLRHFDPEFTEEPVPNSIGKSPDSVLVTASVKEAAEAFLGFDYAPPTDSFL
# SRC (human) = SRC (human) (UniProt P12931)
# SRC (human), sequence (P12931 whole entry, looked up): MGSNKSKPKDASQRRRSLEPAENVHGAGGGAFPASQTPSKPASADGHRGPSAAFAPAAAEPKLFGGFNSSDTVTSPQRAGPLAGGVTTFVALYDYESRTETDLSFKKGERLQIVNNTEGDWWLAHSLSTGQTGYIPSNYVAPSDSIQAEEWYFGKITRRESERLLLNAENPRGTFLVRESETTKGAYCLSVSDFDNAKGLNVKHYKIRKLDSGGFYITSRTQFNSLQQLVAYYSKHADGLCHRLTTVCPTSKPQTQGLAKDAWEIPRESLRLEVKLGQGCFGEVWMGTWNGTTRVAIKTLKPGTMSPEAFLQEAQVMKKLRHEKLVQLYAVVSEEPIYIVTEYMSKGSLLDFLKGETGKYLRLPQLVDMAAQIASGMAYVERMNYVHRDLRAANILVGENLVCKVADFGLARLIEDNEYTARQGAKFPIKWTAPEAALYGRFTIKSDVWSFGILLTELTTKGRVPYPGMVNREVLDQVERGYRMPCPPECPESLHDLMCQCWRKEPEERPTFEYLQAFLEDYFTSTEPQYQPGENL
# STK3 (human) = STK3 (human) (UniProt Q13188)
# TAOK1 (human) = TAOK1 (human) (UniProt Q7L7X3)
# AURKA (human), sequence (O14965 whole entry, looked up): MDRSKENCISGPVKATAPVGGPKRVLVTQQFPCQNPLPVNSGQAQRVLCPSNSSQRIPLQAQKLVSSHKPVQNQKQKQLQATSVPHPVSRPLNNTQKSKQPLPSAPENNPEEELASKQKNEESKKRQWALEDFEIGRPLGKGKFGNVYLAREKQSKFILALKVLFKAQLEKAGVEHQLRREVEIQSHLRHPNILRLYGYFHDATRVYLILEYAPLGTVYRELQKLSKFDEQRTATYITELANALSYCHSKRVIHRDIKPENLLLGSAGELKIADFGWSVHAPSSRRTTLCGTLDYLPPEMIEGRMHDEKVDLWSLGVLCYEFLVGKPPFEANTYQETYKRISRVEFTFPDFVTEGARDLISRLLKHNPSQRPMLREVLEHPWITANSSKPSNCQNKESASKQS
# CHEK2 (human), sequence (O96017 whole entry, looked up): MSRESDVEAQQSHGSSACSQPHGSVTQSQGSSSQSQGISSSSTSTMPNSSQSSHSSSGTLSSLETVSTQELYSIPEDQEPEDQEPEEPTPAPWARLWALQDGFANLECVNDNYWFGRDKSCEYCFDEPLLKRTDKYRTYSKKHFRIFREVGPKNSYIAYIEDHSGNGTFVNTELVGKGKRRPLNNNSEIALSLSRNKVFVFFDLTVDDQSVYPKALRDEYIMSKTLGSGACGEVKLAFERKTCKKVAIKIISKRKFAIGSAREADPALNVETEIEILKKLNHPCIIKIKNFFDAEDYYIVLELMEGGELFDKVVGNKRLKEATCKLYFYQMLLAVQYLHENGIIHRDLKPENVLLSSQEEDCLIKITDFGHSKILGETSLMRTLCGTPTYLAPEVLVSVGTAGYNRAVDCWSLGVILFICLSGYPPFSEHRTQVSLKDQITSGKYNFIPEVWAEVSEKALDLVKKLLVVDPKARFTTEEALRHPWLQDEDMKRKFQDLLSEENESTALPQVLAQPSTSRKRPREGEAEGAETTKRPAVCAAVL
smiles,measurement,setting,value
COc1cc(C(=O)N2CCOCC2)c(F)cc1Nc1ncc(C(F)(F)F)c(NC2CC2)n1,residual activity,AURKA (human); compound 1.0 µM,105%
same,residual activity,AURKA (human); compound 10.0 µM,81%
same,residual activity,BRSK2 (human); compound 1.0 µM,88%
same,residual activity,BRSK2 (human); compound 10.0 µM,51%
same,residual activity,CDK2 CCNA2 (human); compound 1.0 µM,94%
same,residual activity,CDK2 CCNA2 (human); compound 10.0 µM,72%
same,residual activity,CHEK1 (human); compound 1.0 µM,58%
same,residual activity,CHEK1 (human); compound 10.0 µM,25%
same,residual activity,CHEK2 (human); compound 1.0 µM,18%
same,residual activity,CHEK2 (human); compound 10.0 µM,3%
same,residual activity,CLK2 (human); compound 1.0 µM,36%
same,residual activity,CLK2 (human); compound 10.0 µM,5%
same,residual activity,DAPK1 (human); compound 1.0 µM,53%
same,residual activity,DAPK1 (human); compound 10.0 µM,11%
same,residual activity,EEF2K (human); compound 1.0 µM,103%
same,residual activity,EEF2K (human); compound 10.0 µM,107%
same,residual activity,EPHB4 (human); compound 1.0 µM,94%
same,residual activity,EPHB4 (human); compound 10.0 µM,94%
same,residual activity,ERBB4 (human); compound 1.0 µM,74%
same,residual activity,ERBB4 (human); compound 10.0 µM,65%
same,residual activity,FLT1 (human); compound 1.0 µM,55%
same,residual activity,FLT1 (human); compound 10.0 µM,14%
same,residual activity,GCK (human); compound 1.0 µM,73%
same,residual activity,GCK (human); compound 10.0 µM,25%
same,residual activity,HIPK1 (human); compound 1.0 µM,92%
same,residual activity,HIPK1 (human); compound 10.0 µM,49%
same,residual activity,HIPK3 (human),101%
same,residual activity,JAK2 JH1 JH2 (human); compound 1.0 µM,79%
same,residual activity,JAK2 JH1 JH2 (human); compound 10.0 µM,52%
same,residual activity,MAP3K1 (human); compound 1.0 µM,90%
same,residual activity,MAP3K1 (human); compound 10.0 µM,109%
same,residual activity,MAP3K5 (human); compound 1.0 µM,66%
same,residual activity,MAP3K5 (human); compound 10.0 µM,13%
same,residual activity,MAPK1 (human); compound 1.0 µM,95%
same,residual activity,MAPK1 (human); compound 10.0 µM,55%
same,residual activity,MAPK3 (human); compound 1.0 µM,79%
same,residual activity,MAPK3 (human); compound 10.0 µM,49%
same,residual activity,MARK3 (human); compound 1.0 µM,91%
same,residual activity,MARK3 (human); compound 10.0 µM,61%
same,residual activity,MARK4 (human); compound 1.0 µM,95%
same,residual activity,MARK4 (human); compound 10.0 µM,52%
same,residual activity,MST4 (human); compound 1.0 µM,89%
same,residual activity,MST4 (human); compound 10.0 µM,87%
same,residual activity,NTRK1 (human); compound 1.0 µM,70%
same,residual activity,NTRK1 (human); compound 10.0 µM,54%
same,residual activity,NUAK1 (human); compound 1.0 µM,41%
same,residual activity,NUAK1 (human); compound 10.0 µM,9%
same,residual activity,PAK6 (human); compound 1.0 µM,94%
same,residual activity,PAK6 (human); compound 10.0 µM,94%
same,residual activity,PLK1 (human); compound 1.0 µM,78%
same,residual activity,PLK1 (human); compound 10.0 µM,40%
same,residual activity,PRKCA (human); compound 1.0 µM,96%
same,residual activity,PRKCA (human); compound 10.0 µM,101%
same,residual activity,PRKCZ (human); compound 1.0 µM,101%
same,residual activity,PRKCZ (human); compound 10.0 µM,86%
same,residual activity,RPS6KA1 KD1 KD2 (human); compound 1.0 µM,54%
same,residual activity,RPS6KA1 KD1 KD2 (human); compound 10.0 µM,14%
same,residual activity,RPS6KA3 KD1 KD2 (human); compound 1.0 µM,77%
same,residual activity,RPS6KA3 KD1 KD2 (human); compound 10.0 µM,25%
same,residual activity,RPS6KA5 KD1 KD2 (human); compound 1.0 µM,85%
same,residual activity,RPS6KA5 KD1 KD2 (human); compound 10.0 µM,65%
same,residual activity,[1]; compound 1.0 µM,88%
same,residual activity,[1]; compound 10.0 µM,70%
same,residual activity,SRC (human); compound 1.0 µM,107%
same,residual activity,SRC (human); compound 10.0 µM,81%
same,residual activity,STK3 (human); compound 1.0 µM,111%
same,residual activity,STK3 (human); compound 10.0 µM,92%
same,residual activity,TAOK1 (human); compound 1.0 µM,99%
same,residual activity,TAOK1 (human); compound 10.0 µM,80%
